# Test system: potherb mustard (“Mizuna”, Brassica rapa var. laciniifolia)
# Test: Evaluation of the Mizuna (potherb mustard) growth
# Assay type: in vivo
# Settings: 0.05 mg/L foliar spraying (300 L/10a) 9 and 12 days after sowing, harvested 21 days after sowing
# Experimental: Dilutions were prepared by adding distilled water to the above-obtained trihydroxyoctadecaenoic acid solution, ketol fatty acid solution, and culture broth containing fatty acid metabolites, so that the final concentration of each of trihydroxyoctadecaenoic acid, ketol fatty acids, and fatty acid metabolites was 0.05 mg/L, and the resulting dilutions gave treatment solutions. A 72-well cell tray was filled with culture soil (TAKII & CO., LTD, trade name “Tanemaki Baido”), and the forced sprouting seeds of potherb mustard were sown in. After budding, the potherb mustard seedlings were thinned out for two plants per cell. Light condition was set for 12 hours for light period/12 hours for dark period. Water was supplied by irrigating with an appropriate amount of tap water about once every four days. 9 and 12 days after sowing, the plants were treated with foliar spraying by spraying each of the treatment solutions (300 L/10a) to the above-ground part of plants using a sprayer. The negative control was not subjected for the spraying of the treatment solution (“no treatment area”).
# 21 days after sowing, the plants were harvested and the wet weight of the above-ground part of plants per plant and the leaf length were measured.
smiles,measurement,setting,value
"CC/C=C\C/C=C\CC(=O)C(O)CCCCCCCC(=O)O (centres unmarked) [ketol fatty acid, 9-hydroxy-10-oxo-12 (Z), 15 (Z)-octadecadienoic acid]",wet weight of the above-ground part,"average n=20, no treatment area 0.19 g/plant",little increase
same,leaf length,"average n=20, no treatment area 8.1 cm",reduced
